Results taken from publication PMC2613953, “Characterisation of ATP analogues to cross-link and label P2X receptors” (Neuropharmacology, 2009).
Values belong to the compound of their own block, whether it stands above or below them.

Columns and labels:
Assay type in all cases: cell-based
P2X1 receptor [1] = molecular target: T1, P2X1 receptor (Homo sapiens, UniProt P51575); assay: whole cell patch clamp; partial agonist; UV cross-linking with ATP/suramin protection
T1 construct: gene P2RX1; human P2X1 receptor stably expressed in HEK293 cells
T1 sequence (P51575 1-399): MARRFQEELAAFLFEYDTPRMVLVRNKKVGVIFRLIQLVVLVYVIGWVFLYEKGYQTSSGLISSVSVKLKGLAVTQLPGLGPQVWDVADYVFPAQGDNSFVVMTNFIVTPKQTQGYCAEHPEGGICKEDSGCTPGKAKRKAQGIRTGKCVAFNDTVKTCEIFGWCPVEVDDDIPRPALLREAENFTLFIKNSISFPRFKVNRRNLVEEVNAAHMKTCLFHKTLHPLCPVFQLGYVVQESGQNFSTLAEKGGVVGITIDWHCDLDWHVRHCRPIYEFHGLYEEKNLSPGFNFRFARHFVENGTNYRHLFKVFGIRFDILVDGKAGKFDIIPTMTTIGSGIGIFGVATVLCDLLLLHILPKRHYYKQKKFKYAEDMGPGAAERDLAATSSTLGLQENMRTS

P2X2 receptor [2] = molecular target: T2, P2X2 receptor (Rattus norvegicus, UniProt P49653); assay: whole cell patch clamp, agonist current at approximate EC50 concentration
T2 construct: gene P2rx2; rat P2X2 transiently expressed in HEK293 cells
T2 sequence (P49653 1-472): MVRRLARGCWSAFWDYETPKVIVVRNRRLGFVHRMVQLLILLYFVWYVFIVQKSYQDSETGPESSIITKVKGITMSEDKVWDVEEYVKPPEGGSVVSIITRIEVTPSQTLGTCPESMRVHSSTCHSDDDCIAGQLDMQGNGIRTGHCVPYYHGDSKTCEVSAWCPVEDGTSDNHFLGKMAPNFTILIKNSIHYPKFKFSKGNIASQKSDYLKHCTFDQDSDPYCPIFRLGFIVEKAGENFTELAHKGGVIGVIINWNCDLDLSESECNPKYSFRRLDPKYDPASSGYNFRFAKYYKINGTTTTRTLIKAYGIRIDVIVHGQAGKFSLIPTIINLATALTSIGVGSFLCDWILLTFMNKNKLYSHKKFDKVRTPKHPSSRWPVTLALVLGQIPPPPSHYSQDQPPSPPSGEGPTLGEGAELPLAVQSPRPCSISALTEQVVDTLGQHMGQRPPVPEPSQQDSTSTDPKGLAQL

P2X1 receptor [3] = molecular target: T1, P2X1 receptor; assay: competition with radiolabelled photo-reactive ATP analogues; whole cell patch clamp agonism
P2X3 receptor [4] = molecular target: T3, P2X3 receptor (Rattus norvegicus, UniProt P49654); assay: whole cell patch clamp, agonist current at approximate EC50 concentration
T3 construct: gene P2rx3; rat P2X3 transiently expressed in HEK293 cells
T3 sequence (P49654 1-397): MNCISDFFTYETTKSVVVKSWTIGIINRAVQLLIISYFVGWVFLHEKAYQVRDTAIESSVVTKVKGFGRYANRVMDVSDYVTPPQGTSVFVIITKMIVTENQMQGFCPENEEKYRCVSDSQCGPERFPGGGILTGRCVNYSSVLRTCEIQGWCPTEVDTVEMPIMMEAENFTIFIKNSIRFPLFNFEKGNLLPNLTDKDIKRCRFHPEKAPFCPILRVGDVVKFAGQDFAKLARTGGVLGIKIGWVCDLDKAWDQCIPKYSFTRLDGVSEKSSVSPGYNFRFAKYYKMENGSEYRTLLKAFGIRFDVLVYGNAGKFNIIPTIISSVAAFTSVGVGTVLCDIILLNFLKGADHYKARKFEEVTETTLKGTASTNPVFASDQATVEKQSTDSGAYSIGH

P2X4 receptor = molecular target: T4, P2X4 receptor (Homo sapiens, UniProt Q99571); assay: UV photo-cross-linking, then whole cell patch clamp ([…] reduction of ATP current)
T4 construct: gene P2RX4; human P2X4 receptor stably expressed in HEK293 cells
T4 sequence (Q99571 1-388): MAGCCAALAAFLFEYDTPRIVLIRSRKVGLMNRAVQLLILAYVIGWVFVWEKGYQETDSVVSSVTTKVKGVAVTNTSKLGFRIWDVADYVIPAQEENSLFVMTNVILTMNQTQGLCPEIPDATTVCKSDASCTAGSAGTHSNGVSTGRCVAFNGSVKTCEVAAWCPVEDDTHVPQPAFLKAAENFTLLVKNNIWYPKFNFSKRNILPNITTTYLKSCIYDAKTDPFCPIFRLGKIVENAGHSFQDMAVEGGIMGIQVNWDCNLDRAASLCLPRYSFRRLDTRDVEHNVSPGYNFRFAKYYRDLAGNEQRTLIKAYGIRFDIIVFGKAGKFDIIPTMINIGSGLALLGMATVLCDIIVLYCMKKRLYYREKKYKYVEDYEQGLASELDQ

P2X2 receptor [5] = molecular target: T2, P2X2 receptor; assay: as above
P2X1 receptor [6] = molecular target: T1, P2X1 receptor; assay: UV photo-cross-linking of radiolabelled analogue, immunoprecipitation and autoradiography with ATP competition; patch clamp agonism
Text: UV photo-cross-linking of radiolabelled analogue, immunoprecipitation and autoradiography with ATP competition; patch clamp agonism on P2X1 receptor | It confirms the identification of 2-azido ATP as a cross-linking compound which directly binds to the P2X1 receptor.

P2X3 receptor [7] = molecular target: T3, P2X3 receptor; assay: UV photo-cross-linking, then whole cell patch clamp ([…] reduction of ATP current)

SMILES: Nc1ncnc2c1ncn2[C@@H]1O[C@H](COP(=O)(O)OP(=O)(O)OP(=O)(O)O)[C@@H](OC(=O)c2ccc(C(=O)c3ccccc3)cc2)[C@H]1O [C, 2′,3′-O-(4-benzoylbenzoyl)-ATP]
whole cell patch clamp; partial agonist; UV cross-linking with ATP/suramin prote (P2X1 receptor [1]): These results suggest that the BzATP is acting to cross-link to the P2X1 receptor at the ATP binding site.

SMILES: Nc1ncnc2c1ncn2[C@@H]1O[C@H](COP(=O)(O)OP(=O)(O)OP(=O)(O)O)[C@@H](O)[C@H]1O [ATP]
EC50 (P2X2 receptor [2]): ~ 10 μM | EC50 (P2X1 receptor [3]): ~1000 nM | EC50 (P2X3 receptor [4]): ~ 1 μM

% reduction (P2X4 receptor): 45 % reduction | % reduction (P2X2 receptor [5]): 80 % reduction | EC50 (P2X1 receptor [6]): ~3000 nM | % reduction (P2X3 receptor [7]): 83 % reduction
SMILES: [N-]=[N+]=Nc1nc(N)c2ncn([C@@H]3O[C@H](COP(=O)(O)OP(=O)(O)OP(=O)(O)O)[C@@H](O)[C@H]3O)c2n1 [A, 2-azido ATP]
